From patent publication US20250236589A1, “THERAPEUTIC PHENETHYLAMINE COMPOSITIONS AND METHODS OF USE” (Cybin IRL Limited, priority 2022, published 2025)
Where two headings read alike, the source gives them in different places.

Key:
[1] = tested on: Calcium Channel L-Type, Phenylalkylamine, verapamil site (rat cortex); experiment: Off-target screen, radioligand displacement at 10 μM; type: binding; settings: antagonist radioligand
[2] = tested on: 5-HT7 (h) (subtype “a” or “b” not specified); experiment: as above; type: binding, human; settings: agonist radioligand
[3] = PK in Sprague-Dawley rats (plasma, brain, CSF); type: in vivo, rat
Protocol: In another rat PK study, plasma, brain, and cerebrospinal fluid (CSF) distribution of I-1 was evaluated in Sprague-Dawley male rats after intravenous (IV) administration at 1 mg/kg. Plasma, brain, and CSF samples were collected at specified time points up to 8 hr postdose after single dose administration of I-1. Blood samples were collected via cardiac puncture and the animals were euthanized via CO2 inhalation after blood samples were collected. The CSF samples were collected via cisterna magna puncture with the brain tissue extracted after decapitation (N=4 animals per time point). The concentrations of compound I-1 in plasma, with K2EDTA as the anticoagulant, brain tissue, and CSF were determined by LC-MS/MS (LLOQ, 0.3 ng/mL). PK parameters for plasma, CSF, and brain tissue were calculated as described above.

human alpha2C receptor = human alpha2C receptor (Homo sapiens (Human), UniProt P18825); experiment: alpha2C receptor binding ([3H]rauwolscine)
Protocol: (§1) At 10 μM, I-1 inhibited 97% of radioligand bound to rat alpha2 receptors.

[4] = tested on: Adrenergic α2 (subtype not identified) (rat cortex); experiment: Off-target screen, radioligand displacement at 10 μM; type: binding; settings: antagonist radioligand
human alpha2B receptor = human alpha2B receptor (Homo sapiens (Human), UniProt P18089); experiment: alpha2B receptor binding ([3H]rauwolscine)
Protocol: as §1

[5] = Plasma and brain concentrations after dosing in mice (screening); type: in vivo, mouse; settings: for concentration at 160 min: sc, mice, 3 mg/kg s.c.
[6] = In vitro liver microsome stability (HLM); type: in vitro ADME; settings: human, human liver microsomes, 0.5 mg/mL microsomes, NADPH, read-out: HLM, t1/2
Protocol: In vitro stability was determined in Human (HLM), Rat (RLM), Mouse (MsLM), and dog (DLM) Liver Microsomes. All liver microsomes were purchased from a commercial supplier (e.g. XenoTech). The reaction mixture, minus NADPH, was prepared as described below. The test compound was added into the reaction mixture at a final concentration of 1 μM or co-dosed with their deuterated analog(s) at 1 μM each. The control compound, testosterone, was run simultaneously with the test compound in a separate reaction. The reaction mixture (without cofactor) was equilibrated in a shaking water bath at 37° C. for 5 minutes. The reaction was initiated by the addition of the cofactor, and the mixture was incubated in a shaking water bath at 37° C. Aliquots (150 μL) were withdrawn at 0, 5, 10, 20, 30, 60, and 120 minutes. Test compound and testosterone samples were immediately combined with 150 μL of ice-cold acetonitrile (ACN) containing 0.1% formic acid and internal standard to terminate the reaction. The samples were then mixed and centrifuged to precipitate proteins. All samples were assayed by LC-MS/MS using electrospray ionization. […] Half-lives were calculated using GraphPad software, fitting to a single-phase exponential decay equation.

[7] = PK profile in C57BL/6J mice (plasma, brain); type: in vivo, mouse; settings: for Kp / half-life / AUC(0-t) / Cmax / MRT last / Tmax / AUC(0-inf): male, C57BL/6J, mouse; for Kp: brain/plasma, read-out: Brain/Plasma ratio (AUCINF); for AUC(0-inf): read-out: AUCINF—obs
Protocol: PK Profile in Mice. To evaluate the full PK profile for I-1 in mice, plasma and brain samples were determined in male C57BL/6J mice following subcutaneous (s.c.) and oral (p.o.) administration at 3 mg/kg (see Table 7 and FIGS. 54A and 54B). In a typical experiment, blood was collected via cardiac puncture (N=3 animals per time point, 9 time points) up to 24 hours post dose. Plasma and brain concentrations were determined using LC-MS/MS and PK parameters were determined using a non-compartmental analysis (NCA) using Phoenix WinNonlin Pro (v8.3.1, Pharsight, Inc, USA) software.

human alpha2A receptor = human alpha2A receptor (Homo sapiens (Human), UniProt P08913); experiment: alpha2A receptor function; type: cell-based
5-HT1A receptors = 5-HT1A receptors (Homo sapiens (Human), UniProt P08908); experiment: 5-HT1A receptor function; type: cell-based
Protocol: I-1 was also a potent 5-HT2 agonist, but at 10 μM, it inhibited >80% radioligand binding to nine other targets (see Table 6). […] I-1 inhibited <90% of radioligand binding to the other seven off-targets.

[8] = male, Sprague-Dawley, rat, CSF, IV 1 mg/kg
[9] = male, Sprague-Dawley, rat, brain, IV 1 mg/kg
[10] = male, Sprague-Dawley, rat, plasma, IV 1 mg/kg

human alpha2B receptor, sequence (P18089 whole entry): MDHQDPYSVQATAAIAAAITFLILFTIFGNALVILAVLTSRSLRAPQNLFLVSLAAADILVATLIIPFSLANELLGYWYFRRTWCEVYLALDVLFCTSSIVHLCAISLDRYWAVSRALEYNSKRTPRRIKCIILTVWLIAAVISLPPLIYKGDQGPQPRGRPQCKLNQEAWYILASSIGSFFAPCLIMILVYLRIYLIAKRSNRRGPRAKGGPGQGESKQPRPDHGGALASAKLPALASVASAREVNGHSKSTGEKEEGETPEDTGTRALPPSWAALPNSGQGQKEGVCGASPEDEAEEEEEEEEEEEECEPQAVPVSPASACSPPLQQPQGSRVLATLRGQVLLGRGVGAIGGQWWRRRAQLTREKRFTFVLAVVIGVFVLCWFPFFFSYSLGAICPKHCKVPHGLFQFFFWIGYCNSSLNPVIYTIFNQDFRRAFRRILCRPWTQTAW
human alpha2A receptor, sequence (P08913 whole entry): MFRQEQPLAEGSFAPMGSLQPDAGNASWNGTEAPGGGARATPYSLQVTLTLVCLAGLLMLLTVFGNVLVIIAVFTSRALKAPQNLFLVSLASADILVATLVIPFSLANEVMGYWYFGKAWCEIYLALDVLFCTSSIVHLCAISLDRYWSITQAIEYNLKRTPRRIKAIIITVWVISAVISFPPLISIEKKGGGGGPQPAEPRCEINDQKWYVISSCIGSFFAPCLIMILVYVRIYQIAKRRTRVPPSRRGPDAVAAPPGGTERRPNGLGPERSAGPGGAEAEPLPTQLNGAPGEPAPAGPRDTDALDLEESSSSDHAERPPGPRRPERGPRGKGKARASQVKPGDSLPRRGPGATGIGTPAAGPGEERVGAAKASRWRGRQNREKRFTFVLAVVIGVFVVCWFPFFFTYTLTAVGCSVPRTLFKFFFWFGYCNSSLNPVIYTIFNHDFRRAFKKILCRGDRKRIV
human alpha2C receptor, sequence (P18825 whole entry): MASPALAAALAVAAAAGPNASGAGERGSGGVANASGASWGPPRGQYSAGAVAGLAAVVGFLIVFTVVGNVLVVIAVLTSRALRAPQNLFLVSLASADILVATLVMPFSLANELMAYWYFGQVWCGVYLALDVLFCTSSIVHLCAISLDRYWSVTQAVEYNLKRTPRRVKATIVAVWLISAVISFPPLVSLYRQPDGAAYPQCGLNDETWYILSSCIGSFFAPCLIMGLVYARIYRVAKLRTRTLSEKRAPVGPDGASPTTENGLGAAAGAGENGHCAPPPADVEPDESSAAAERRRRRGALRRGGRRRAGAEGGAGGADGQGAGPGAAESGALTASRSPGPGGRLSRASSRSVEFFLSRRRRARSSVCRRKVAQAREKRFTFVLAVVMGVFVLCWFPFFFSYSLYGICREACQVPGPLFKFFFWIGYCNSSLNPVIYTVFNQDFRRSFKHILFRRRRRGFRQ

SMILES: COc1cc(CC(C)N)c(OC)cc1I (racemic) [DOI, (±)-2,5-dimethoxy-4-iodoamphetamine, reference compound]
- inhibition at 10 µM [1]: 55.5% inhibition at 10 μM
- inhibition at 10 µM [2]: 58.4% inhibition at 10 μM

SMILES: COc1cc(SC(F)(F)F)c(OC)cc1CCN [Compound I-1, 2-(2,5-dimethoxy-4-((trifluoromethyl)thio)phenyl)ethan-1-amine]
- Tlast ([3]; CSF, IV 1 mg/kg): 6 h
- CSF concentrations as share of brain concentrations ([3]; IV 1 mg/kg): 1.6%
- Tlast ([3]; brain, IV 1 mg/kg): 8 h
- total systemic clearance relative to total hepatic blood flow ([3]; hepatic blood flow 3.31 L/hr/kg): approximately 1.4 fold
- Kp ([3]; male, Sprague-Dawley, rat, CSF/plasma, IV 1 mg/kg, read-out: CSF concentrations as share of plasma): 0.2
- AUC(0-inf) [3, 8]: 51.4 ng·h/mL
- AUC(0-t) [3, 8]: 49.9 ng·h/mL
- Cmax [3, 8]: 48.7 ng/mL
- MRT inf [3, 8]: 1.51 h
- Tmax [3, 8]: 0.083 h
- half-life [3, 8]: 1.26 h
- AUC(0-inf) [3, 9]: 3280 ng·h/mL
- AUC(0-t) [3, 9]: 3220 ng·h/mL
- Cmax [3, 9]: 1490 ng/mL
- MRT inf [3, 9]: 1.98 h
- Tmax [3, 9]: 0.25 h
- half-life [3, 9]: 1.34 h
- AUC(0-inf) [3, 10]: 210 ng·h/mL
- AUC(0-t) [3, 10]: 207 ng·h/mL
- C0 [3, 10]: 330 ng/mL
- Cmax [3, 10]: 250 ng/mL
- MRT inf [3, 10]: 1.19 h
- Tmax [3, 10]: 0.083 h
- clearance [3, 10]: 79.5 mL/min/kg
- half-life [3, 10]: 1.53 h
- Vd ([3]; male, Sprague-Dawley, rat, plasma, IV 1 mg/kg, read-out: Vss): 5.67 L/kg
- Tlast ([3]; plasma, IV 1 mg/kg): 8 h
- volume of distribution relative to total body water ([3]; total body water 0.7 L/kg): approximately 8.1 fold
- Ki (human alpha2C receptor): 108 nM
- inhibition at 10 µM [4]: 97.3%
- Ki (human alpha2B receptor): 1020 nM
- brain/plasma ratio, 160 min ([5]; 160 min after 3 mg/kg): 32.4
- concentration at 160 min ([5]; mouse, brain, read-out: Brain, 160 min): 9.6 µM
- Kp at 160 min ([5]; mouse, brain/plasma, subcutaneous, 3 mg/kg, 160 min after 3 mg/kg, read-out: brain/plasma ratio, 160 min): 24 to 32
- concentration at 160 min ([5]; mouse, plasma, read-out: Plasma, 160 min): 0.3 µM
- half-life at 1 μM [6]: > 2 h
- AUCINF ([7]; brain, p.o. 3 mg/kg): 16171 ng·h/g
- T1/2 ([7]; brain, p.o. 3 mg/kg): 2.73 h
- peak brain concentration ([7]; brain, p.o. 3 mg/kg): 2366 ng/g
- AUCINF ([7]; brain, s.c. 3 mg/kg): 22487 ng·h/g
- T1/2 ([7]; brain, s.c. 3 mg/kg): 3.15 h
- peak brain concentration ([7]; brain, s.c. 3 mg/kg): 3165 ng/g
- Kp ([7]; po, p.o. 3 mg/kg): 25.8
- Kp ([7]; sc, s.c. 3 mg/kg): 30.7
- half-life ([7]; plasma and brain, other: subcutaneous and oral (range over both routes), 3 mg/kg, across route of administration and tissue, read-out: elimination T1/2): 2.73 to 3.92 h
- AUC(0-t) ([7]; po, brain, p.o. 3 mg/kg): 16100 ng·h/mL
- Cmax ([7]; po, brain, p.o. 3 mg/kg): 2370 ng/mL
- MRT last ([7]; po, brain, p.o. 3 mg/kg): 5.35 h
- Tmax ([7]; po, brain, p.o. 3 mg/kg): 1 h
- AUC(0-inf) ([7]; po, brain, p.o. 3 mg/kg): 16200 ng·h/mL
- half-life ([7]; po, brain, p.o. 3 mg/kg, read-out: T1/2 (converted)): 2.73 h
- AUC(0-t) ([7]; po, plasma, p.o. 3 mg/kg): 625 ng·h/mL
- Cmax ([7]; po, plasma, p.o. 3 mg/kg): 175 ng/mL
- MRT last ([7]; po, plasma, p.o. 3 mg/kg): 3.01 h
- Tmax ([7]; po, plasma, p.o. 3 mg/kg): 1 h
- AUC(0-inf) ([7]; po, plasma, p.o. 3 mg/kg): 784 ng·h/mL
- half-life ([7]; po, plasma, p.o. 3 mg/kg, read-out: T1/2 (converted)): 3.3 h
- AUC(0-t) ([7]; sc, brain, s.c. 3 mg/kg): 22500 ng·h/mL
- Cmax ([7]; sc, brain, s.c. 3 mg/kg): 3160 ng/mL
- MRT last ([7]; sc, brain, s.c. 3 mg/kg): 4.89 h
- Tmax ([7]; sc, brain, s.c. 3 mg/kg): 2 h
- AUC(0-inf) ([7]; sc, brain, s.c. 3 mg/kg): 22500 ng·h/mL
- half-life ([7]; sc, brain, s.c. 3 mg/kg, read-out: T1/2 (converted)): 3.15 h
- AUC(0-t) ([7]; sc, plasma, s.c. 3 mg/kg): 731 ng·h/mL
- Cmax ([7]; sc, plasma, s.c. 3 mg/kg): 188 ng/mL
- MRT last ([7]; sc, plasma, s.c. 3 mg/kg): 2.96 h
- Tmax ([7]; sc, plasma, s.c. 3 mg/kg): 0.08 h
- AUC(0-inf) ([7]; sc, plasma, s.c. 3 mg/kg): 1000 ng·h/mL
- half-life ([7]; sc, plasma, s.c. 3 mg/kg, read-out: T1/2 (converted)): 3.92 h
- % Frelative po (AUCINF) ([7]; plasma, oral relative to subcutaneous): 78.3%
- T1/2 ([7]; plasma, s.c. 3 mg/kg): 3.92 h
- EC50 (human alpha2A receptor): 165 nM
- EC50 (5-HT1A receptors): 88 nM
